The experiment relates to Beet Armyworm (Spodoptera exigua). Put plainly: Bioassays on BAW, 128-well diet tray assay. In kind it is in vivo. The conditions noted are these: percent mortality, second instar larvae, 50 μg/cm^2 on artificial diet, five to seven days, 25° C.; Table 3. Here is the method:
Certain molecules disclosed in this document were tested against BAW and CEW and CL using procedures described in the following examples. In the reporting of the results, the “BAW & CEW & CL Rating Table” was used (See Table Section).
Bioassays on BAW (Spodoptera exigua)
Bioassays on BAW were conducted using a 128-well diet tray assay. one to five second instar BAW larvae were placed in each well (3 mL) of the diet tray that had been previously filled with 1 mL of artificial diet to which 50 μg/cm^2 of the test compound (dissolved in 50 μL of 90:10 acetone-water mixture) had been applied (to each of eight wells) and then allowed to dry. Trays were covered with a clear self-adhesive cover, and held at 25° C., 14:10 light-dark for five to seven days. Percent mortality was recorded for the larvae in each well; activity in the eight wells was then averaged. The results are indicated in the table entitled “Table 3: Assay Results” (See Table Section).

The text below walks through data of patent US9635859B2, “Pesticidal compositions and processes related thereto” (Dow AgroSciences LLC, priority 2012, dated 2017).

As to `Cc1cc(/C=C/C(c2cc(Cl)cc(Cl)c2)C(F)(F)F)ccc1C(=O)NCc1ccccc1F` (stereo not drawn) [AC9], the “BAW Rating” value was “A (50-100)”. Take `Cc1cc(/C=C/C(c2cc(Cl)cc(Cl)c2)C(F)(F)F)ccc1C(=O)NC1CSC1` (stereo not drawn) [AC10]: the “BAW Rating” value was “A (50-100)”.

As for `Cc1cc(/C=C/C(c2cc(Cl)cc(Cl)c2)C(F)(F)F)ccc1C(=O)NCc1ccccc1` (stereo not drawn) [AC11], the “BAW Rating” value is “A (50-100)”.

For the compound `Cc1cc(/C=C/C(c2cc(Cl)cc(Cl)c2)C(F)(F)F)ccc1C(=O)NCc1ccccn1` (stereo not drawn) [AC12], the “BAW Rating” value was “A (50-100)”. In the case of `Cc1cc(/C=C/C(c2cc(Cl)cc(Cl)c2)C(F)(F)F)ccc1C(=O)NC1CS(=O)(=O)C1` (stereo not drawn) [AC13], the “BAW Rating” value is on record as “A (50-100)”. The value for `Cc1cc(/C=C/C(c2cc(Cl)cc(Cl)c2)C(F)(F)F)ccc1C(=O)NCc1cnc(Cl)s1` (stereo not drawn) [AC15] was “A (50-100)”. The result for `Cc1cc(/C=C/C(c2cc(Cl)cc(Cl)c2)C(F)(F)F)ccc1C(=O)NC(C)(C)c1ccccn1` (stereo not drawn) [AC16] reads “A (50-100)”. Regarding `Cc1cc(/C=C/C(c2cc(Cl)cc(Cl)c2)C(F)(F)F)ccc1C(=O)NNc1ccccc1F` (stereo not drawn) [AC17], the “BAW Rating” value is “A (50-100)”. On to `Cc1cc(/C=C/C(c2cc(Cl)cc(Cl)c2)C(F)(F)F)ccc1C(=O)NCc1ncccn1` (stereo not drawn) [AC18], for which the “BAW Rating” value is given as “A (50-100)”. For `Cc1cc(/C=C/C(c2cc(Cl)cc(Cl)c2)C(F)(F)F)ccc1C(=O)NCc1ccoc1` (stereo not drawn) [AC20], the “BAW Rating” value is “A (50-100)”.

Consider `Cc1cc(/C=C/C(c2cc(Cl)c(Cl)c(Cl)c2)C(F)(F)F)ccc1C(=O)NCc1ccc(Cl)nc1` (stereo not drawn) [AC22], for which the “BAW Rating” value is “A (50-100)”. With `Cc1cc(/C=C/C(c2cc(Cl)c(Cl)c(Cl)c2)C(F)(F)F)ccc1C(=O)NC1CSC1` (stereo not drawn) [AC23], the “BAW Rating” value was “A (50-100)”. Turning to `Cc1cc(/C=C/C(c2cc(Cl)c(Cl)c(Cl)c2)C(F)(F)F)ccc1C(=O)NCc1cnc(Cl)s1` (stereo not drawn) [AC26], the “BAW Rating” value is “A (50-100)”. For the compound `Cc1cc(/C=C/C(c2cc(Cl)c(Cl)c(Cl)c2)C(F)(F)F)ccc1C(=O)NC(C)(C)c1ccccn1` (stereo not drawn) [AC27], the “BAW Rating” value was “A (50-100)”.

Take `O=C(NCc1ccc(Cl)nc1)c1ccc(/C=C/C(c2cc(Cl)c(Cl)c(Cl)c2)C(F)(F)F)cc1Cl` (stereo not drawn) [AC28]: the “BAW Rating” value is “A (50-100)”. Regarding `O=C(NC1CSC1)c1ccc(/C=C/C(c2cc(Cl)c(Cl)c(Cl)c2)C(F)(F)F)cc1Cl` (stereo not drawn) [AC29], the “BAW Rating” value is given as “A (50-100)”. Consider `O=C(NC1CS(=O)(=O)C1)c1ccc(/C=C/C(c2cc(Cl)c(Cl)c(Cl)c2)C(F)(F)F)cc1Cl` (stereo not drawn) [AC30], for which the “BAW Rating” value is on record as “A (50-100)”. On to `O=C(NCc1ccc(Cl)nc1)c1ccc(/C=C/C(c2cc(Cl)c(Cl)c(Cl)c2)C(F)(F)F)cc1Br` (stereo not drawn) [AC31], for which the “BAW Rating” value is recorded as “A (50-100)”. As for `O=C(NC1CSC1)c1ccc(/C=C/C(c2cc(Cl)c(Cl)c(Cl)c2)C(F)(F)F)cc1Br` (stereo not drawn) [AC32], the “BAW Rating” value was “A (50-100)”. The value for `O=C(NC1CS(=O)(=O)C1)c1ccc(/C=C/C(c2cc(Cl)c(Cl)c(Cl)c2)C(F)(F)F)cc1Br` (stereo not drawn) [AC33] was “A (50-100)”. Consider `O=C(NC1CSC1)c1ccc(/C=C/C(c2cc(Cl)c(Cl)c(Cl)c2)C(F)(F)F)cc1C(F)(F)F` (stereo not drawn) [AC34], for which the “BAW Rating” value is “A (50-100)”. Consider `O=C(NC1CS(=O)(=O)C1)c1ccc(/C=C/C(c2cc(Cl)c(Cl)c(Cl)c2)C(F)(F)F)cc1C(F)(F)F` (stereo not drawn) [AC35], for which the “BAW Rating” value is “A (50-100)”.

Take `O=C(NCc1ccc(Cl)nc1)c1ccc(/C=C/C(c2cc(Cl)c(Cl)c(Cl)c2)C(F)(F)F)cc1C(F)(F)F` (stereo not drawn) [AC36]: the “BAW Rating” value is “A (50-100)”. As for `Cc1cc(/C=C/C(c2ccc(Cl)c(Cl)c2)C(F)(F)F)ccc1C(=O)NCc1ccc(Cl)nc1` (stereo not drawn) [AC37], the “BAW Rating” value is given as “A (50-100)”. For `Cc1cc(/C=C/C(c2cc(Cl)c(F)c(Cl)c2)C(F)(F)F)ccc1C(=O)NCc1ccc(Cl)nc1` (stereo not drawn) [AC38], the “BAW Rating” value was “A (50-100)”. Take `Cc1cc(/C=C/C(c2cc(Cl)cc(Cl)c2)C(F)(F)F)ccc1C(=O)NCc1cncnc1` (stereo not drawn) [AC39, 4-((E)-3-(3,5-Dichlorophenyl)-4,4,4-trifluorobut-1-enyl)-2-methyl-N-((pyrimidin-5-yl)methyl)benzamide]: the “BAW Rating” value is “A (50-100)”.

For `Cc1cc(/C=C/C(c2cc(Cl)cc(Cl)c2)C(F)(F)F)ccc1C(=O)NCC(=O)NC1CC1` (stereo not drawn) [AC40], the “BAW Rating” value was “A (50-100)”. `Cc1cc(/C=C/C(c2cc(Cl)cc(Cl)c2)C(F)(F)F)ccc1C(=O)NCC(=O)NC1CSC1` (stereo not drawn) [AC41]: the “BAW Rating” value is “A (50-100)”. Turning to `Cc1cc(/C=C/C(c2cc(Cl)cc(Cl)c2)C(F)(F)F)ccc1C(=O)NCc1nc2ccccc2s1` (stereo not drawn) [AC42], the “BAW Rating” value is “A (50-100)”. `Cc1cc(/C=C/C(c2cc(Cl)cc(Cl)c2)C(F)(F)F)ccc1C(=O)NCc1cnccn1` (stereo not drawn) [AC43]: the “BAW Rating” value was “A (50-100)”. The result for `Cc1cc(/C=C/C(c2cc(Cl)cc(Cl)c2)C(F)(F)F)ccc1C(=O)NN(C)c1ccccc1F` (stereo not drawn) [AC45] reads “A (50-100)”. Turning to `Cc1cc(/C=C/C(c2cc(Cl)cc(Cl)c2)C(F)(F)F)ccc1C(=O)NCc1ccc(Cl)cc1` (stereo not drawn) [AC48], the “BAW Rating” value is given as “A (50-100)”. Take `O=C(NCc1ccc(Cl)nc1)c1ccc(/C=C/C(c2cc(Cl)cc(Cl)c2)C(F)(F)F)cc1F` (stereo not drawn) [AC49]: the “BAW Rating” value is “A (50-100)”.

Consider `Cc1cc(/C=C/C(c2cc(Cl)cc(Cl)c2)C(F)(F)F)ccc1C(=O)NCc1nccn1C` (stereo not drawn) [AC50], for which the “BAW Rating” value is on record as “A (50-100)”. For `Cc1cc(/C=C/C(c2cc(Cl)cc(Cl)c2)C(F)(F)F)ccc1C(=O)NCC(=O)N(C)CC(F)(F)F` (stereo not drawn) [AC51], the “BAW Rating” value is “A (50-100)”. For `Cc1cc(/C=C/C(c2cc(Cl)c(F)c(Cl)c2)C(F)(F)F)ccc1C(=O)NC1CCOCC1` (stereo not drawn) [AC52], the “BAW Rating” value was “A (50-100)”. For `Cc1cc(/C=C/C(c2cc(Cl)c(F)c(Cl)c2)C(F)(F)F)ccc1C(=O)NCc1ccc(Cl)cn1` (stereo not drawn) [AC53], the “BAW Rating” value is recorded as “A (50-100)”. Consider `Cc1cc(/C=C/C(c2cc(Cl)c(F)c(Cl)c2)C(F)(F)F)ccc1C(=O)NCc1ccnc(Cl)c1` (stereo not drawn) [AC54], for which the “BAW Rating” value is given as “A (50-100)”. Turning to `CC(C)(C)OC(=O)CNC(=O)c1ccc(/C=C/C(c2cc(Cl)c(Cl)c(Cl)c2)C(F)(F)F)cc1Br` (stereo not drawn) [AC58], the “BAW Rating” value is on record as “A (50-100)”.

As to `Cc1cc(/C=C/C(c2cc(Cl)cc(Cl)c2)C(F)(F)F)ccc1C(=O)Nc1ccc(Cl)nc1` (stereo not drawn) [AC59], the “BAW Rating” value is “A (50-100)”. In the case of `O=C(NC1CSC1)c1ccc(/C=C/C(c2cc(Cl)cc(Cl)c2)C(F)(F)F)cc1F` (stereo not drawn) [AC61], the “BAW Rating” value was “A (50-100)”. The result for `O=C(CNC(=O)c1ccc(/C=C/C(c2cc(Cl)cc(Cl)c2)C(F)(F)F)cc1F)NCC(F)(F)F` (stereo not drawn) [AC62] reads “A (50-100)”; that for `O=C(NCc1ccc(Cl)nc1)c1ccc(/C=C/C(c2cc(Cl)c(F)c(Cl)c2)C(F)(F)F)cc1Br` (stereo not drawn) [AC63], “A (50-100)”. On to `O=C(CNC(=O)c1ccc(/C=C/C(c2cc(Cl)c(Cl)c(Cl)c2)C(F)(F)F)cc1Cl)NCC(F)(F)F` (stereo not drawn) [AC64, (E)-2-Chloro-N-(2-oxo-2-((2,2,2-trifluoroethyl)amino)ethyl)-4-(4,4,4-trifluoro-3-(3,4,5-trichlorophenyl)but-1-en-1-yl)benzamide], for which the “BAW Rating” value was “A (50-100)”. With `O=C(NCc1ccc(Cl)nc1)c1ccc(/C=C/C(c2cc(Cl)c(F)c(Cl)c2)C(F)(F)F)cc1F` (stereo not drawn) [AC65], the “BAW Rating” value is “A (50-100)”. Consider `O=C(CNC(=O)c1ccc(/C=C/C(c2cc(Cl)c(Cl)c(Cl)c2)C(F)(F)F)cc1Br)NCC(F)(F)F` (stereo not drawn) [AC66], for which the “BAW Rating” value is listed as “A (50-100)”. Regarding `O=C(NC1CSC1)c1ccc(/C=C/C(c2cc(Cl)c(F)c(Cl)c2)C(F)(F)F)cc1F` (stereo not drawn) [AC67], the “BAW Rating” value was “A (50-100)”. On to `O=C(CNC(=O)c1ccc(/C=C/C(c2cc(Cl)c(F)c(Cl)c2)C(F)(F)F)cc1F)NCC(F)(F)F` (stereo not drawn) [AC68], for which the “BAW Rating” value is given as “A (50-100)”. Turning to `Cc1cc(/C=C/C(c2cc(Cl)c(F)c(Cl)c2)C(F)(F)F)ccc1C(=O)NCC(=O)NCC(F)(F)F` (stereo not drawn) [AC69], the “BAW Rating” value is “A (50-100)”. On to `COc1cc(/C=C/C(c2cc(Cl)c(F)c(Cl)c2)C(F)(F)F)ccc1C(=O)NC1CSC1` (stereo not drawn) [AC71], for which the “BAW Rating” value is listed as “A (50-100)”. For the compound `CCc1cc(/C=C/C(c2cc(Cl)c(F)c(Cl)c2)C(F)(F)F)ccc1C(=O)NCc1ccc(Cl)nc1` (stereo not drawn) [AC72], the “BAW Rating” value was “A (50-100)”. On to `O=C(NCc1ccc(C(F)(F)F)nc1)c1ccc(/C=C/C(c2cc(Cl)c(Cl)c(Cl)c2)C(F)(F)F)cc1Br` (stereo not drawn) [AC75], for which the “BAW Rating” value was “A (50-100)”.

On to `Cc1cc(/C=C/C(c2cc(Cl)c(F)c(Cl)c2)C(F)(F)F)ccc1C(=O)NCc1cc(Cl)ccn1` (stereo not drawn) [AC77], for which the “BAW Rating” value is “A (50-100)”.

On to `Cc1cc(/C=C/C(c2cc(Cl)c(Cl)c(Cl)c2)C(F)(F)F)ccc1C(=O)NCC(=O)NCC(F)(F)F` (stereo not drawn) [AC78], for which the “BAW Rating” value is reported as “A (50-100)”. Consider `O=C(CNC(=O)c1ccc(/C=C/C(c2cc(Cl)c(F)c(Cl)c2)C(F)(F)F)cc1Br)NCC(F)(F)F` (stereo not drawn) [AC79, (E)-2-Bromo-4-(3-(3,5-dichloro-4-fluorophenyl)-4,4,4-trifluorobut-1-en-1-yl)-N-(2-oxo-2-((2,2,2-trifluoroethyl)amino)ethyl)benzamide], for which the “BAW Rating” value is on record as “A (50-100)”. The value for `CCc1cc(/C=C/C(c2cc(Cl)c(F)c(Cl)c2)C(F)(F)F)ccc1C(=O)NCC(=O)NCC(F)(F)F` (stereo not drawn) [AC80] was “A (50-100)”; that for `Cc1cc(/C=C/C(c2cc(Cl)cc(Cl)c2)C(F)(F)F)ccc1C(=O)NCC(=O)NC1CS(=O)(=O)C1` (stereo not drawn) [AC81] was “A (50-100)”.
